Test results from patent US9593113B2, “Imide and acylurea derivatives as modulators of the glucocorticoid receptor” (BRISTOL-MYERS SQUIBB COMPANY, priority 2013, dated 2017).
Where two headings read alike, the source gives them in different places.

Legend:
[1] = target: human full-length glucocorticoid receptor (Homo sapiens (Human), UniProt P04150); assay: Glucocorticoid Receptor Binding Assay (II), fluorescence polarization competitor kit; conditions: read-out: GR (Ki, nM) (measured in GR binding Assay II)
Procedure: In order to measure the binding of compounds on the glucocorticoid receptor a commercially available kit was used (Glucocorticoid receptor competitor assay kit, PanVera Co., Madison, Wis., P2816). Briefly, a cell lysate containing recombinantly expressed human full-length glucocorticoid receptor was mixed with a fluorescently labeled glucocorticoid (1 nM Fluormone GS1) in the presence or absence of test compound. After one hour at room temperature, the fluorescence polarization (FP) of the samples were measured.

[2] = test system: AP-1 induced transcriptional activity; assay: Cellular transrepressional assay (AP-1 luciferase reporter, PMA-activated A549 cell); type: cell-based; conditions: for EC50: read-out: AP-1 (EC50, nM) (measured in cellular transrepression assay)
Procedure: To measure the ability of test molecules to inhibit AP-1 induced transcriptional activity we utilized an A549 cell which was stably transfected with a plasmid containing 7×AP-1 DNA binding sites (pAP-1-Luc plasmid, Stratagene Co., La Jolla, Calif.) followed by the gene for luciferase. Cells were activated with 10 ng/ml of phorbol myristic acid (PMA) plus or minus test molecules for 7 hours. After 7 hours a luciferase reagent was added to measure luciferase enzymatic activity in the cell. After a 10 minute incubation of luciferase reagent with cells, luminescence was measured in a TOPCOUNT® luminescence counter. Repression of AP-1 activity was calculated as the percentage decrease in the signal induced by PMA alone. Test molecules were analyzed in the concentration range from 0.1 nM to 40 μM. EC50s were determined by using standard curve fitting methods such as Excel fit (Microsoft Co.). An EC50 is the test molecule concentration at which there is a 50% repression of the maximal inhibition of transcription, i.e., a 50% reduction of AP-1 activity.

[3] = A549 cell, 10 ng/ml PMA, 7 hours
[4] = Homo sapiens, A549 cell, 10 ng/ml PMA, 7 hours

Chain of human full-length glucocorticoid receptor (P04150 whole entry): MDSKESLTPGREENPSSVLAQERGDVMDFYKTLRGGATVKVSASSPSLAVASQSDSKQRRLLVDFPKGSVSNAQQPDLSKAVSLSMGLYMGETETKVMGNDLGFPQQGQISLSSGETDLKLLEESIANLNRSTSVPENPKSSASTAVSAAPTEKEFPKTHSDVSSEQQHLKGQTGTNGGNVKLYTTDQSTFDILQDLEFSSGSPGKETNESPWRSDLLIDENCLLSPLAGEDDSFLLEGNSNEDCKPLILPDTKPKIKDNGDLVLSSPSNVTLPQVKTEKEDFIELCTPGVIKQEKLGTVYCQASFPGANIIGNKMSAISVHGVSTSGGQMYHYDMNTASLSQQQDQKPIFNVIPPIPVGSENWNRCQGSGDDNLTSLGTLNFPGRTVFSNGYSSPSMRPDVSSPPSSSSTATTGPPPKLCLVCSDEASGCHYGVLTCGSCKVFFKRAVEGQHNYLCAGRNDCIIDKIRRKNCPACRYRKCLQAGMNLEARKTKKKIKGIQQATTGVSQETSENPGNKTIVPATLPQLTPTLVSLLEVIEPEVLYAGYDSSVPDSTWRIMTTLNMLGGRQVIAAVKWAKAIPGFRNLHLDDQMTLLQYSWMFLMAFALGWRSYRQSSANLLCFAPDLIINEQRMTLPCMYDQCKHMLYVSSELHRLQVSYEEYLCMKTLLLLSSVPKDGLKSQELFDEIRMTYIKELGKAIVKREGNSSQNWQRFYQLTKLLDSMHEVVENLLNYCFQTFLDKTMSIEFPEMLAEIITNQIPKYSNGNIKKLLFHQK

Compound | Ki [1] | EC50 [2, 4] | EC50 [2, 3] | AP-1 Max % inhibition (measured in cellular transrepression assay) [2, 3] | AP-1 Max % inhibition (measured in cellular transrepression assay) [2] | EC50 [2]
CC(=O)NC(=O)C(C)(C)[C@@H]1c2ccc(-c3ccc(C(=O)N4CCCC4)cc3)nc2Oc2c(F)cccc21 [Example 8] | 3.59 nM |  | 5.97 nM | 64.35% |  | 
CNC(=O)NC(=O)C(C)(C)[C@@H]1c2ccc(-c3ccc(C(=O)N4CCCC4)cc3)nc2Oc2c(F)cccc21 [Example 11] | 4.44 nM |  | 29.6 nM | 46.34% |  | 
CCS(=O)(=O)c1ccc(-c2ccc3c(n2)Oc2c(F)cccc2[C@@H]3C(C)(C)C(=O)NC(=O)NC)cc1 [Example 12] | 5.04 nM |  | 85.7 nM | 36.42% |  | 
CNC(=O)NC(=O)C(C)(C)[C@@H]1c2ccc(-c3ccc(S(=O)(=O)C(C)C)cc3)nc2Oc2c(F)cccc21 [Example 25] | 5.26 nM |  | 347 nM | 25.41% |  | 
CC(C)(C(=O)NC(N)=O)[C@@H]1c2ccc(-c3ccc(C(=O)N4CCCC4)cc3)nc2Oc2c(F)cccc21 [Example 30] | 0.72 nM |  | 1.59 nM | 63.94% |  | 
CC(C)Oc1ccc(-c2ccc3c(n2)Oc2c(F)cccc2[C@@H]3C(C)(C)C(=O)NC(N)=O)cc1F [Example 35] | 0.4 nM |  | 7.5 nM | 54.04% |  | 
CC(C)Oc1ccc(-c2ccc3c(n2)Oc2ccccc2[C@@H]3C(C)(C)C(=O)NC(N)=O)cc1 [Example 36] | 0.8 nM |  | 16.2 nM | 59.83% |  | 
CCS(=O)(=O)c1ccc(-c2ccc3c(n2)Oc2ccccc2[C@@H]3C(C)(C)C(=O)NC(N)=O)cc1 [Example 39] | 0.93 nM |  | 13 nM | 58.23% |  | 
CC(C)(C(=O)NC(N)=O)[C@H]1c2ccccc2Oc2nc(-c3ccc(C(=O)N4CCCC4)cc3)ccc21 [Example 40] | 1.93 nM |  | 8.69 nM | 68.22% |  | 
CC(C)(C(=O)NC(N)=O)[C@@H]1c2ccc(-c3ccc(-n4cnnn4)cc3)nc2Oc2c(F)cccc21 [Example 45] | 0.82 nM |  | 7.77 nM | 55.41% |  | 
CC(C)(C(=O)NC(N)=O)[C@@H]1c2ccc(-c3ccc(C(=O)N4CCCC4)nc3)nc2Oc2c(F)cccc21 [Example 46] | 1.97 nM |  | 16.5 nM | 65.90% |  | 
CC(C)(C(=O)NC(N)=O)[C@H]1c2ccccc2Oc2nc(-c3ccc(C(=O)N4CCC(F)(F)C4)cc3)ccc21 [Example 50] | 1.76 nM |  | 15.3 nM | 69.26% |  | 
CC(C)(C(=O)NC(N)=O)[C@H]1c2ccccc2Oc2nc(-c3ccc(C(=O)N4CCCC4)c(F)c3)ccc21 [Example 51] | 1.34 nM |  | 13.2 nM | 65.20% |  | 
CC(C)(C(=O)NC(N)=O)[C@H]1c2ccccc2Oc2nc(-c3ccc(C(=O)N4CCCC4)c(Cl)c3)ccc21 [Example 52] | 123 nM |  | 815 nM | 57.02% |  | 
CC(C)(C(=O)NC(N)=O)[C@H]1c2ccccc2Oc2nc(-c3ccc(C(=O)N4CCCC4)nc3)ccc21 [Example 54] | 7.65 nM |  | 67.2 nM | 55.36% |  | 
CC(C)Nc1ccc(-c2ccc3c(n2)Oc2c(F)cccc2[C@@H]3C(C)(C)C(=O)NC(N)=O)cn1 [Example 60] | 1.13 nM |  |  |  | 66.44% | 2.9 nM
CC(=O)Nc1ccc(-c2ccc3c(n2)Oc2c(F)cccc2[C@@H]3C(C)(C)C(=O)NC(N)=O)cn1 [Example 61] | 4.26 nM |  | 31.1 nM | 39.15% |  | 
CC(C)(C(=O)NC(N)=O)[C@@H]1c2ccc(-c3ccc(C(=O)N4CCC4)cc3)nc2Oc2c(F)cccc21 [Example 84] |  | 4.22 nM |  | 67.75% |  | 

Further lines, with some results ahead:

Ki [1] | EC50 [2, 4] | EC50 [2, 3] | Compound | AP-1 Max % inhibition (measured in cellular transrepression assay) [2, 3] | AP-1 Max % inhibition (measured in cellular transrepression assay) [2] | EC50 [2]
42.7 nM | 5000 nM |  | CCC(=O)NC(=O)C(C)(C)[C@@H]1c2ccc(Cl)nc2Oc2c(F)cccc21 [Example 1] | 17.32% |  | 
13.6 nM |  | 483 nM | CNC(=O)NC(=O)C(C)(C)[C@@H]1c2ccc(-c3ccc(S(C)(=O)=O)cc3)nc2Oc2c(F)cccc21 [Example 13] | 31.60% |  | 
1.6 nM |  | 35.1 nM | CNC(=O)NC(=O)C(C)(C)[C@@H]1c2ccc(-c3ccc(OC(C)C)cc3)nc2Oc2c(F)cccc21 [Example 16] | 49.58% |  | 
9.68 nM |  | 2500 nM | CNC(=O)NC(=O)C(C)(C)[C@@H]1c2ccc(-c3ccc(OC(C)C)nc3)nc2Oc2c(F)cccc21 [Example 17] | 37.10% |  | 
239 nM |  | 5000 nM | CNC(=O)NC(=O)C(C)(C)[C@@H]1c2ccc(-c3cnc(N4CCN(C)CC4)nc3)nc2Oc2c(F)cccc21 [Example 18] | 21.96% |  | 
10.9 nM | 5000 nM |  | CNC(=O)NC(=O)C(C)(C)[C@@H]1c2ccc(-c3ccc(N4CCOCC4)nc3)nc2Oc2c(F)cccc21 [Example 27] | 16.38% |  | 
3.33 nM | 646 nM |  | COc1ccc(CNC(=O)NC(=O)C(C)(C)[C@@H]2c3ccc(-c4ccc(C(C)(C)O)cc4)nc3Oc3c(F)cccc32)cc1 [Example 29] | 51.82% |  | 
0.43 nM |  | 5.55 nM | CCS(=O)(=O)c1ccc(-c2ccc3c(n2)Oc2c(F)cccc2[C@@H]3C(C)(C)C(=O)NC(N)=O)cc1 [Example 31] | 56.84% |  | 
3.55 nM |  | 4.89 nM | CC(C)S(=O)(=O)c1ccc(-c2ccc3c(n2)Oc2c(F)cccc2[C@@H]3C(C)(C)C(=O)NC(N)=O)cc1 [Example 32] | 59.56% |  | 
0.59 nM |  | 5.82 nM | CC(C)(C(=O)NC(N)=O)[C@@H]1c2ccc(-c3ccc(S(C)(=O)=O)cc3)nc2Oc2c(F)cccc21 [Example 33] | 64.54% |  | 
0.25 nM |  | 1.24 nM | CC(C)Oc1ccc(-c2ccc3c(n2)Oc2c(F)cccc2[C@@H]3C(C)(C)C(=O)NC(N)=O)cc1 [Example 34] | 68.62% |  | 
1.74 nM |  | 14.1 nM | CCC(C)c1ccc(-c2ccc3c(n2)Oc2ccccc2[C@@H]3C(C)(C)C(=O)NC(N)=O)cc1 (stereo partly shown) [Example 38] | 56.33% |  | 
0.91 nM |  | 5.39 nM | CCCCc1ccc(-c2ccc3c(n2)Oc2c(F)cccc2[C@@H]3C(C)(C)C(=O)NC(N)=O)cc1 [Example 43] | 67.14% |  | 
1.09 nM |  | 13.3 nM | CC(C)(C(=O)NC(N)=O)[C@H]1c2ccccc2Oc2nc(-c3ccc(C(=O)N4CCC(F)(F)C4)c(F)c3)ccc21 [Example 49] | 67.00% |  | 
369 nM |  | 2500 nM | CC(C)(C(=O)NC(N)=O)[C@H]1c2ccccc2Oc2nc(-c3ccc(C(=O)N4CCC(F)(F)C4)c(Cl)c3)ccc21 [Example 53] | 28.67% |  | 
4.23 nM |  | 128 nM | CC(C)Oc1ccc(-c2ccc3c(n2)Oc2ccccc2[C@@H]3C(C)(C)C(=O)NC(N)=O)cn1 [Example 57] | 73.98% |  | 
24.9 nM |  | 72.6 nM | CN(C)c1ccc(-c2ccc3c(n2)Oc2ccccc2[C@@H]3C(C)(C)C(=O)NC(N)=O)cn1 [Example 58] | 45.16% |  | 
 | 340 nM |  | CC(C)(O)CNC(=O)NC(=O)C(C)(C)[C@@H]1c2ccc(-c3ccc(C(=O)N4CCOCC4)cc3)nc2Oc2c(F)cccc21 [Example 78] | 46.32% |  | 
 | 789 nM |  | CC(C)(O)CNC(=O)NC(=O)C(C)(C)[C@@H]1c2ccc(-c3ccc(C(C)(C)O)cc3)nc2Oc2c(F)cccc21 [Example 79] | 36.12% |  | 
 | 84.6 nM |  | CC(C)(O)c1ccc(-c2ccc3c(n2)Oc2c(F)cccc2[C@@H]3C(C)(C)C(=O)NC(=O)NCCO)cc1 [Example 80] | 44.42% |  | 
 | 6.69 nM |  | CC(C)S(=O)(=O)c1ccc(-c2ccc3c(n2)Oc2ccccc2[C@@H]3C(C)(C)C(=O)NC(N)=O)cc1 [Example 82] | 60.06% |  | 
